From patent US20170224654A1, “PHARMACEUTICAL COMPOSITIONS AND METHODS FOR COUNTERING CHEMOTHERAPY INDUCED CARDIOTOXICITY” (Stem Cell Theranostics, Inc., priority 2016, published 2017)
“Also recorded” adds a separate entry of the source.

tested on: Doxorubicin treated human iPSC-derived cardiomyocytes; test: iPSC-CM protection of MYR analogs against doxorubicin; format: cell-based; settings: Homo sapiens, Cardiomyocyte; discussion of Table 1; read-out: EC50 / potency for cardioprotection

SMILES	EC50 [µM]
COc1cc(-c2oc3cc(O)cc(O)c3c(=O)c2O)cc(O)c1O [3′-O-methylmyricetin]	~59

same assay, conditions: Homo sapiens, iPSC-CM; initial screen at 10 μM or 100 μM; read-out: iPSC-CM protection Max Effect (%)

SMILES	Emax [%]
O=c1cc(-c2ccc(O)cc2)oc2ccccc12 [Compound 17, 4′-hydroxyflavone]	< 30

same assay, conditions: discussion of Table 1

SMILES	cardioprotection (in words)
O=c1cc(-c2cc(O)c(O)c(O)c2)oc2cc(O)ccc12 [7,3′,4′,5′-tetrahydroxyflavone]	displayed cardioprotection
O=c1c(O)c(-c2ccccc2)oc2cc(O)cc(O)c12 [3,5,7-trihydroxyflavone]	neither cardioprotection nor TOPOII inhibition
COc1cc(-c2oc3cc(O)cc(O)c3c(=O)c2O)cc(O)c1O [3′-O-methylmyricetin]	conferred cardioprotection
O=c1ccoc2ccccc12 [chromone]	no positive effect in cardiac protection
O=c1c(O)c(-c2ccc(O)c(O)c2)oc2cc(O)cc(O)c12 [Compound 4, 3,5,7,3′,4′-pentahydroxyflavone]	conferred cardioprotection
COc1cc(-c2oc3cc(O)cc(O)c3c(=O)c2O)cc(OC)c1OC [3′,4′,5′-O-trimethylmyricetin]	entirely failed to display cardioprotection or TOPOII inhibition
O=c1cc(-c2cc(O)c(O)c(O)c2)oc2cc(O)cc(O)c12 [Compound 3, 5,7,3′,4′,5′-pentahydroxyflavone]	displayed cardioprotection
COc1c(O)cc(-c2oc3cc(O)cc(O)c3c(=O)c2O)cc1O [4′-O-methylmyricetin]	conferred cardioprotection
COc1cc(-c2oc3cc(O)ccc3c(=O)c2O)cc(OC)c1OC [3′,4′,5′-O-trimethylrobinetin]	entirely failed to display cardioprotection or TOPOII inhibition
COc1ccc2c(=O)c(O)c(-c3cc(OC)c(OC)c(OC)c3)oc2c1 [7,3′,4′,5′-O-tetramethylrobinetin]	entirely failed to display cardioprotection or TOPOII inhibition
COc1ccc2c(=O)c(OC)c(-c3cc(OC)c(OC)c(OC)c3)oc2c1 [3,7,3′,4′,5′-O-pentamethylrobinetin]	entirely failed to display cardioprotection or TOPOII inhibition
O=c1ccoc2cc(O)ccc12 [Compound 7-hydroxy-4-chromone, 7-hydroxy-4-chromone]	no positive effect in cardiac protection
COc1cc(-c2oc3cc(O)cc(O)c3c(=O)c2O)cc(OC)c1O [3′,5′-O-dimethylmyricetin]	neither cardioprotection nor TOPOIIα and TOPOIIβ inhibition

target: T1, TOPOIIα (Homo sapiens, UniProt P11388); test: kDNA decatenation assay; format: biochemical; settings: not given
T1 construct: purchased Inspiralis
T1 sequence (P11388 whole entry): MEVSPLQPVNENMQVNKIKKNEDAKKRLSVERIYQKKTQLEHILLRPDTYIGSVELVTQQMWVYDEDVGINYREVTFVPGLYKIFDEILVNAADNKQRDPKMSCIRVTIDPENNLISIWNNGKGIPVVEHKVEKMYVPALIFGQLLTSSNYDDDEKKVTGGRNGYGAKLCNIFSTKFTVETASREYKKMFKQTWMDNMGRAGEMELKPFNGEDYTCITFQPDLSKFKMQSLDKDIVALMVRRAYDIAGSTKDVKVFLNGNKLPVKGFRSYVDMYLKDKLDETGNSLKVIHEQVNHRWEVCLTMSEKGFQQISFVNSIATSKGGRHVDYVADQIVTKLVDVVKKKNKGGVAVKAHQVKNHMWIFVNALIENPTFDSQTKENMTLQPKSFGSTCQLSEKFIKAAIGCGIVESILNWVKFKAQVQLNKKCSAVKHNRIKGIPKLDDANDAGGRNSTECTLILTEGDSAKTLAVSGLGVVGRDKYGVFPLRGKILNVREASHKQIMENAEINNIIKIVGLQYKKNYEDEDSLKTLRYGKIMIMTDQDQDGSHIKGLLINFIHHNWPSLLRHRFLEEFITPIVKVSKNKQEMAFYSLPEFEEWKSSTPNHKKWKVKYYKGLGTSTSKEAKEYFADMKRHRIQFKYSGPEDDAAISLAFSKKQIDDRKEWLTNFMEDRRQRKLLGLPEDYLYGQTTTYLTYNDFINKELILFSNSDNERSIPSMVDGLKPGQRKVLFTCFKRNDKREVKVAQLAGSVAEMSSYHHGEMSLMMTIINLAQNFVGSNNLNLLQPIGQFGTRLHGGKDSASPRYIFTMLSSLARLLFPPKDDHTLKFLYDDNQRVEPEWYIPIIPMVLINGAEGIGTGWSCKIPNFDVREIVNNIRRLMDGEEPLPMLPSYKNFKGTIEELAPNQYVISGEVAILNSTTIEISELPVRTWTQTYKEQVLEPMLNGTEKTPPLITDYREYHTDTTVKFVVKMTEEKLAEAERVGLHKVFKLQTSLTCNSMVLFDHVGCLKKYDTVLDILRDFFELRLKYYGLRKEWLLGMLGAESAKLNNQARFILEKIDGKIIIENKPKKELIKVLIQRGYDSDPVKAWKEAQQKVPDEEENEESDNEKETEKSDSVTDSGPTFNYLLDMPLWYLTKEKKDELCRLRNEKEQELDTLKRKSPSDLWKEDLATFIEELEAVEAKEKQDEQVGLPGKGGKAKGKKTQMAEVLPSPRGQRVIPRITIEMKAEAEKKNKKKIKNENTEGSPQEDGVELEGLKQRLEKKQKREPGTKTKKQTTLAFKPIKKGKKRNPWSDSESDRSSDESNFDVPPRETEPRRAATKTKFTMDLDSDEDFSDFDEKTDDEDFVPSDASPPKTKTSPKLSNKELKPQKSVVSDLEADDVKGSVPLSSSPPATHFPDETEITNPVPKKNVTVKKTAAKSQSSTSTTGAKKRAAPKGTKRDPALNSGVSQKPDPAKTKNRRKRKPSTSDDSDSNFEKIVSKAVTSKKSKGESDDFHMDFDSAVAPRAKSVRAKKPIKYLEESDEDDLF

SMILES	TOPOIIα Inhibition
O=c1ccoc2cc(O)ccc12 [Compound 38, 7-hydroxy-4-chromone]	−
O=c1c(O)c(-c2ccc(O)cc2)oc2cc(O)ccc12 [Compound 10, 3,7,4′-trihydroxyflavone]	−
O=c1cc(-c2ccc(O)c(O)c2)oc2cc(O)ccc12 [Compound 11, 7,3′,4′-trihydroxyflavone]	−
O=c1cc(-c2cc(O)c(O)c(O)c2)oc2cc(O)ccc12 [Compound 6, 7,3′,4′,5′-tetrahydroxyflavone]	−
COc1cc(-c2oc3cc(O)ccc3c(=O)c2O)cc(OC)c1OC [Compound 35, 3′,4′,5′-O-trimethylrobinetin]	−
O=c1cc(-c2ccc(O)c(O)c2)oc2cc(O)cc(O)c12 [Compound 9, 5,7,3′,4′-tetrahydroxyflavone]	−
COc1ccc2c(=O)c(O)c(-c3cc(OC)c(OC)c(OC)c3)oc2c1 [Compound 36, 7,3′,4′,5′-O-tetramethylrobinetin]	−
COc1cc(-c2oc3cc(O)cc(O)c3c(=O)c2O)cc(OC)c1OC [Compound 34, 3′,4′,5′-O-trimethylmyricetin]	−
COc1c(O)cc(-c2oc3cc(O)cc(O)c3c(=O)c2O)cc1O [Compound 32, 4′-O-methylmyricetin]	−
O=c1c(O)c(-c2ccc(O)c(O)c2)oc2ccccc12 [Compound 12, 3,3′,4′-trihydroxyflavone]	−
COc1cc(-c2oc3cc(O)cc(O)c3c(=O)c2O)cc(O)c1O [Compound 31, 3′-O-methylmyricetin]	−
COc1cc(-c2oc3cc(O)cc(O)c3c(=O)c2O)cc(OC)c1O [Compound 33, 3′,5′-O-dimethylmyricetin]	−
O=C1c2ccc(O)cc2OC(c2cc(O)c(O)c(O)c2)C1O (stereo in doubt) [Compound 30, dihydrorobinetin]	−
COc1ccc2c(=O)c(OC)c(-c3cc(OC)c(OC)c(OC)c3)oc2c1 [Compound 37, 3,7,3′,4′,5′-O-pentamethylrobinetin]	−
O=c1cc(-c2cc(O)c(O)c(O)c2)oc2ccccc12 [Compound 8, 3′,4′,5′-trihydroxyflavone]	−

same assay, conditions: DHM: even at >200 μM

SMILES	TOPOIIα enzymatic inhibition (in words)
O=C1c2c(O)cc(O)cc2O[C@H](c2cc(O)c(O)c(O)c2)[C@H]1O [dihydromyricetin]	did not inhibit
O=c1c(O)c(-c2cc(O)c(O)c(O)c2)oc2cc(O)ccc12 [Compound 2, 3,7,3′,4′,5′-pentahydroxyflavone]	high level of inhibition
O=C1c2ccc(O)cc2OC(c2cc(O)c(O)c(O)c2)C1O (stereo in doubt) [Compound 30, dihydrorobinetin]	no inhibitory activity

tested on: Human iPSC-derived cardiomyocytes; test: Cytotoxicity of MYR analogs to cardiomyocytes; settings: 100 μM

SMILES	Toxicity
O=c1cc(-c2cc(O)c(O)c(O)c2)oc2cc(O)ccc12 [Compound 6, 7,3′,4′,5′-tetrahydroxyflavone]	−
O=c1ccoc2ccccc12 [Compound 29, chromone]	−
O=c1c(O)c(-c2cc(O)c(O)c(O)c2)oc2cc(O)ccc12 [Compound 2, 3,7,3′,4′,5′-pentahydroxyflavone]	−
O=c1cc(-c2ccc(O)cc2)oc2ccccc12 [Compound 17, 4′-hydroxyflavone]	−
O=c1cc(-c2cc(O)c(O)c(O)c2)oc2ccccc12 [Compound 8, 3′,4′,5′-trihydroxyflavone]	−

same assay, conditions: at or below 100 μM as stated

SMILES	cytotoxicity / toxic effects to cardiomyocytes (in words)
O=c1c(O)c(-c2ccc(O)cc2)oc2cc(O)ccc12 [Compound 10, 3,7,4′-trihydroxyflavone]	exhibited toxic effects at concentrations below 100 μM
O=c1c(O)c(-c2ccccc2)oc2cc(O)cc(O)c12 [3,5,7-trihydroxyflavone]	generalized cytotoxicity
COc1cc(-c2oc3cc(O)cc(O)c3c(=O)c2O)cc(O)c1O [3′-O-methylmyricetin]	without showing generalized cytotoxicity
O=c1c(O)c(-c2ccc(O)c(O)c2)oc2cc(O)cc(O)c12 [Compound 4, 3,5,7,3′,4′-pentahydroxyflavone]	high level of general cytoxicity
O=c1ccoc2cc(O)ccc12 [Compound 7-hydroxy-4-chromone, 7-hydroxy-4-chromone]	high level of cytotoxicity at 100 μM

same assay, conditions: at or below 100 μM as stated; listed as tricetin

SMILES	cytotoxicity / toxic effects to cardiomyocytes (in words)
O=c1cc(-c2cc(O)c(O)c(O)c2)oc2cc(O)cc(O)c12 [Compound 3, 5,7,3′,4′,5′-pentahydroxyflavone]	exhibits some toxic effects at concentrations less than 100 μM; also recorded: low level of cytotoxicity at 100 μM

tested on: induced pluripotent stem cell-derived cardiomyocytes; test: Acute toxicity on electrophysiology (MEA beat period, field potential duration); format: cell-based; settings: higher concentrations
Method: Samples were either mock-treated with 0.1% DMSO, or treated with increasing concentrations of the indicated drug for at least 20 minutes. Cardiomyocytes were treated with the hERG potassium channel blocker E4031 as a control. Following treatment, the beat period and field potential duration (FPD) were measured in each sample using the MEA.

SMILES	acute drug toxicity (beating)
C[C@H](CCC(=O)O)[C@H]1CC[C@H]2[C@@H]3[C@H](O)C[C@@H]4C[C@H](O)CC[C@]4(C)[C@H]3CC[C@]12C [chenodeoxycholic acid]	beating cessation

same assay, conditions: lower drug concentration, at least 20 minutes

SMILES	beat period or field potential duration, as compared to control samples
C[C@H](CCC(=O)O)[C@H]1CC[C@H]2[C@@H]3[C@H](O)C[C@@H]4C[C@H](O)CC[C@]4(C)[C@H]3CC[C@]12C [chenodeoxycholic acid]	no appreciable difference

target: T2, TOPOIIβ (Homo sapiens, UniProt Q02880); test: kDNA decatenation assay; format: biochemical; settings: not given
T2 construct: purchased Inspiralis
T2 sequence (Q02880 whole entry): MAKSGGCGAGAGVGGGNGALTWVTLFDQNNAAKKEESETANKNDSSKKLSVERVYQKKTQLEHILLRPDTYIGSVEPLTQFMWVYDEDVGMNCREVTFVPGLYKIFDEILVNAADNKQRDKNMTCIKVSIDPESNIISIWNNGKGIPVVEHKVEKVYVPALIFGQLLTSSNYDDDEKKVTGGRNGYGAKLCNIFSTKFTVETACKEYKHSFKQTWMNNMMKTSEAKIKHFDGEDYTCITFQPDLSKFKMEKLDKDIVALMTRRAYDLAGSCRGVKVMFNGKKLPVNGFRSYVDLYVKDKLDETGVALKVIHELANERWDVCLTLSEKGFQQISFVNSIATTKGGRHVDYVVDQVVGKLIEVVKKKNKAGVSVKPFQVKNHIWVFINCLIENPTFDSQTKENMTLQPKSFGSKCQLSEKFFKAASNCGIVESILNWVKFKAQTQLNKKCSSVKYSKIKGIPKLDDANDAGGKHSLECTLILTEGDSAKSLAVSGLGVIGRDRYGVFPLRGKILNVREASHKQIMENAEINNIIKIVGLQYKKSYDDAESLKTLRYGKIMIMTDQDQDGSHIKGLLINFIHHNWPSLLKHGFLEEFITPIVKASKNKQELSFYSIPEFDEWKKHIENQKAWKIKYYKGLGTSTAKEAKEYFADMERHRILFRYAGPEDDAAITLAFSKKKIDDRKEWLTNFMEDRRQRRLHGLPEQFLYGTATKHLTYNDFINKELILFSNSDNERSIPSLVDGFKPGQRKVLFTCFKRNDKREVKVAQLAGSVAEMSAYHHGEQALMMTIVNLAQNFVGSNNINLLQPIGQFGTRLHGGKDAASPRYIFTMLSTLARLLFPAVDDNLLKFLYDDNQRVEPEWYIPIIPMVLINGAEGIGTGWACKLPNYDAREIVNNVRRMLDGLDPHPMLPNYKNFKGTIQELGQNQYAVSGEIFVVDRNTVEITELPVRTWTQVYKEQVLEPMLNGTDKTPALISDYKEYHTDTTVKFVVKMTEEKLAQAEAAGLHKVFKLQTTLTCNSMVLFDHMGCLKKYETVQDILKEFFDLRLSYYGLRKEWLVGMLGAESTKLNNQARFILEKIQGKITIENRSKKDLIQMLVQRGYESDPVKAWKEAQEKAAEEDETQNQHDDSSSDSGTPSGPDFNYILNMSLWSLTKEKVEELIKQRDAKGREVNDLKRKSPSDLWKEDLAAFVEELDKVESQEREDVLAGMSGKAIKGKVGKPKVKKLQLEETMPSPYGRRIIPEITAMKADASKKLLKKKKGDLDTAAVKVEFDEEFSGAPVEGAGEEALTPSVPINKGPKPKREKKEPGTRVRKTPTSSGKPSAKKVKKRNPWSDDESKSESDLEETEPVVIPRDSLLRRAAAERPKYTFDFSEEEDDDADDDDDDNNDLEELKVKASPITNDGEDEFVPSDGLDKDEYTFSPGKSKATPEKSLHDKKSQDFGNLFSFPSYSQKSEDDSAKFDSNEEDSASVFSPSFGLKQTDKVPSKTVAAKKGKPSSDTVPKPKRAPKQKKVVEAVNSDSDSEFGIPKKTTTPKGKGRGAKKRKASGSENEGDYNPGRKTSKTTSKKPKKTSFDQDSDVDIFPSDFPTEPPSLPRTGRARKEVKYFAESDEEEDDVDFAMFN

SMILES	TOPOIIβ Inhibition
O=c1ccoc2cc(O)ccc12 [Compound 38, 7-hydroxy-4-chromone]	−
O=c1c(O)c(-c2ccc(O)cc2)oc2cc(O)ccc12 [Compound 10, 3,7,4′-trihydroxyflavone]	−
O=c1cc(-c2ccc(O)c(O)c2)oc2cc(O)ccc12 [Compound 11, 7,3′,4′-trihydroxyflavone]	−
O=c1cc(-c2cc(O)c(O)c(O)c2)oc2cc(O)ccc12 [Compound 6, 7,3′,4′,5′-tetrahydroxyflavone]	−
COc1cc(-c2oc3cc(O)ccc3c(=O)c2O)cc(OC)c1OC [Compound 35, 3′,4′,5′-O-trimethylrobinetin]	−
O=c1cc(-c2ccc(O)c(O)c2)oc2cc(O)cc(O)c12 [Compound 9, 5,7,3′,4′-tetrahydroxyflavone]	−
COc1ccc2c(=O)c(O)c(-c3cc(OC)c(OC)c(OC)c3)oc2c1 [Compound 36, 7,3′,4′,5′-O-tetramethylrobinetin]	−
COc1cc(-c2oc3cc(O)cc(O)c3c(=O)c2O)cc(OC)c1OC [Compound 34, 3′,4′,5′-O-trimethylmyricetin]	−
COc1c(O)cc(-c2oc3cc(O)cc(O)c3c(=O)c2O)cc1O [Compound 32, 4′-O-methylmyricetin]	−
O=c1c(O)c(-c2ccc(O)c(O)c2)oc2ccccc12 [Compound 12, 3,3′,4′-trihydroxyflavone]	−
COc1cc(-c2oc3cc(O)cc(O)c3c(=O)c2O)cc(O)c1O [Compound 31, 3′-O-methylmyricetin]	−
COc1cc(-c2oc3cc(O)cc(O)c3c(=O)c2O)cc(OC)c1O [Compound 33, 3′,5′-O-dimethylmyricetin]	−
O=C1c2ccc(O)cc2OC(c2cc(O)c(O)c(O)c2)C1O (stereo in doubt) [Compound 30, dihydrorobinetin]	−
COc1ccc2c(=O)c(OC)c(-c3cc(OC)c(OC)c(OC)c3)oc2c1 [Compound 37, 3,7,3′,4′,5′-O-pentamethylrobinetin]	−
O=c1cc(-c2cc(O)c(O)c(O)c2)oc2ccccc12 [Compound 8, 3′,4′,5′-trihydroxyflavone]	−

same assay, conditions: DHM: even at >200 μM

SMILES	TOPOIIβ enzymatic inhibition (in words)
O=C1c2c(O)cc(O)cc2O[C@H](c2cc(O)c(O)c(O)c2)[C@H]1O [dihydromyricetin]	did not inhibit
O=c1c(O)c(-c2cc(O)c(O)c(O)c2)oc2cc(O)ccc12 [Compound 2, 3,7,3′,4′,5′-pentahydroxyflavone]	high level of inhibition
O=C1c2ccc(O)cc2OC(c2cc(O)c(O)c(O)c2)C1O (stereo in doubt) [Compound 30, dihydrorobinetin]	no inhibitory activity

tested on: TOPOII enzymes (TOPOIIα and TOPOIIβ); test: kDNA decatenation assay, TOPOIIα and TOPOIIβ jointly; format: biochemical; settings: discussion of Table 1
Method: 200 ng of kinetoplast DNA (kDNA) was incubated with one enzymatic unit of TOPOIIα or TOPOIIβ enzyme (Inspiralis) and with various concentrations of MYR or DEX at 37° C. for 30 min. The reaction was then separated on 1% agarose gel for visualization of decatenated DNA (bottom band). The efficiency of catalytic inhibition was quantified by measuring the relative intensity of the band.

SMILES	TOPOII (TOPOIIα and TOPOIIβ) inhibition (in words)
O=c1cc(-c2cc(O)c(O)c(O)c2)oc2cc(O)ccc12 [7,3′,4′,5′-tetrahydroxyflavone]	did not inhibit TOPOII enzymes
O=c1c(O)c(-c2ccccc2)oc2cc(O)cc(O)c12 [3,5,7-trihydroxyflavone]	neither cardioprotection nor TOPOII inhibition
COc1cc(-c2oc3cc(O)cc(O)c3c(=O)c2O)cc(O)c1O [3′-O-methylmyricetin]	failed to inhibit TOPOII enzymes
O=c1ccoc2ccccc12 [chromone]	Nor did either compound confer TOPOIIβ or a inhibition
O=c1c(O)c(-c2ccc(O)c(O)c2)oc2cc(O)cc(O)c12 [Compound 4, 3,5,7,3′,4′-pentahydroxyflavone]	exhibited TOPOII inhibition
COc1cc(-c2oc3cc(O)cc(O)c3c(=O)c2O)cc(OC)c1OC [3′,4′,5′-O-trimethylmyricetin]	entirely failed to display cardioprotection or TOPOII inhibition
O=c1cc(-c2cc(O)c(O)c(O)c2)oc2cc(O)cc(O)c12 [Compound 3, 5,7,3′,4′,5′-pentahydroxyflavone]	TOPOII inhibition
COc1c(O)cc(-c2oc3cc(O)cc(O)c3c(=O)c2O)cc1O [4′-O-methylmyricetin]	without TOPOII inhibition
COc1cc(-c2oc3cc(O)ccc3c(=O)c2O)cc(OC)c1OC [3′,4′,5′-O-trimethylrobinetin]	entirely failed to display cardioprotection or TOPOII inhibition
COc1ccc2c(=O)c(O)c(-c3cc(OC)c(OC)c(OC)c3)oc2c1 [7,3′,4′,5′-O-tetramethylrobinetin]	entirely failed to display cardioprotection or TOPOII inhibition
COc1ccc2c(=O)c(OC)c(-c3cc(OC)c(OC)c(OC)c3)oc2c1 [3,7,3′,4′,5′-O-pentamethylrobinetin]	entirely failed to display cardioprotection or TOPOII inhibition
O=c1ccoc2cc(O)ccc12 [Compound 7-hydroxy-4-chromone, 7-hydroxy-4-chromone]	Nor did either compound confer TOPOIIβ or a inhibition
COc1cc(-c2oc3cc(O)cc(O)c3c(=O)c2O)cc(OC)c1O [3′,5′-O-dimethylmyricetin]	neither cardioprotection nor TOPOIIα and TOPOIIβ inhibition
